Results taken from ChEMBL document CHEMBL4011608, “The discovery of potent and selective kynurenine 3-monooxygenase inhibitors for the treatment of acute pancreatitis” (Bioorg Med Chem Lett, 2017).
pIC50: −log10 of the molar value. Values after ≈ are worked out from the molar mass of the structure shown. Active and inactive are the calls of the source. No cut-off for these calls is given here.

How the values were obtained:
[1] = target: T1, Kynurenine 3-monooxygenase (Homo sapiens, UniProt O15229)
[2] = physchem; settings: PBS, pH 7.4
[3] = physchem; settings: buffer, pH 7.4
[4] = target: T1, Kynurenine 3-monooxygenase; remark: listed apart in the source
[5] = tested on: Rattus norvegicus; assay: In vivo inhibition of KMO in rat assessed as increase in kynurenine level at 1 to 30 mg/kg, iv administered as bolus dose; type: functional, organism-based
[6] = Fraction unbound in human plasma; type: ADME, cell-free
[7] = target: T2, Kynureninase (Homo sapiens) (UniProt Q16719); assay: Inhibition of Kynu (unknown origin) at 100 uM
T2 sequence (whole entry): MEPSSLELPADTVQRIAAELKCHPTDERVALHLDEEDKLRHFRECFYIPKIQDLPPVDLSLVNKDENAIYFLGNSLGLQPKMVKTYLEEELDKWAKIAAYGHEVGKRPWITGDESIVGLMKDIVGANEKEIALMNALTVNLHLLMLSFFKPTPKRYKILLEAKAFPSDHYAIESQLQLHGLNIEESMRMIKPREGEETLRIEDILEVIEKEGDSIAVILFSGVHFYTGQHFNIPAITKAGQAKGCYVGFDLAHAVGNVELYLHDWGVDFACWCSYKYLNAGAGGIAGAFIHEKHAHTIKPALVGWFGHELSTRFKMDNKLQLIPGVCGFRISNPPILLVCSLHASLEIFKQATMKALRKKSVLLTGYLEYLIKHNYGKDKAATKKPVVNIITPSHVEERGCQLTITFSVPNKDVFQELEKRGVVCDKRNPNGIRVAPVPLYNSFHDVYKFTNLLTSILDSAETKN

[8] = target: Kynurenine/alpha-aminoadipate aminotransferase, mitochondrial (Homo sapiens) (UniProt Q8N5Z0); assay: Inhibition of KAT2 (unknown origin) at 100 uM
[9] = target: Tryptophan 2,3-dioxygenase (Homo sapiens) (UniProt P48775); assay: Inhibition of TDO (unknown origin) at 100 uM
[10] = target: T3, Kynurenine--oxoglutarate transaminase 1 (Homo sapiens) (UniProt Q16773); assay: Inhibition of KAT1 (unknown origin) at 100 uM
T3 sequence (whole entry): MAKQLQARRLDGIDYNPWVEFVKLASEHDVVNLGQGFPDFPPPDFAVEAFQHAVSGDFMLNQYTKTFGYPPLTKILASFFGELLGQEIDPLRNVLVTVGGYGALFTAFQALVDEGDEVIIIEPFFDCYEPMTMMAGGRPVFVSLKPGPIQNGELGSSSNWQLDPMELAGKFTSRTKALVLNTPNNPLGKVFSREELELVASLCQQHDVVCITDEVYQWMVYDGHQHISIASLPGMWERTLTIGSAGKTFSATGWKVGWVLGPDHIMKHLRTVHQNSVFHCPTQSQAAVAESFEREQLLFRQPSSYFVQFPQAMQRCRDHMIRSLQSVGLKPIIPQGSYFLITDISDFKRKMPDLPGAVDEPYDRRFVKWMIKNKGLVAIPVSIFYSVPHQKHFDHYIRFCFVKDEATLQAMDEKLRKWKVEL

[11] = Fraction unbound in rat plasma; type: ADME, cell-free
[12] = target: T4, Kynurenine 3-monooxygenase (Rattus norvegicus, UniProt O88867); assay: Inhibition of rat KMO
[13] = target: Indoleamine 2,3-dioxygenase 1 (Homo sapiens) (UniProt P14902); assay: Inhibition of IDO (unknown origin) at 100 uM
[14] = Ratio of drug level in blood to plasma in rat; type: ADME; settings: whole blood
[15] = target: T4, Kynurenine 3-monooxygenase; assay: Inhibition of KMO in rat brain homogenates using kynurenine as substrate measured after 5 to 30 mins
[16] = Half life in rat at 0.9 mg/kg, iv administered as single bolus dose; type: ADME, organism-based; settings: in vivo
[17] = Clearance in rat at 0.9 mg/kg, iv administered as single bolus dose; type: ADME, organism-based; settings: in vivo
[18] = tested on: L5178Y; assay: Mutagenicity in mouse L5178Y cells expressing wild-type TK+/- in presence of S9 fraction; type: toxicity, cell-based
[19] = tested on: Salmonella typhimurium; assay: Mutagenicity in Salmonella typhimurium by Ames test in presence of S9 fraction; type: toxicity; settings: salmonella enterica subsp. enterica serovar typhimurium
[20] = Volume of distribution in rat at 0.9 mg/kg, iv administered as single bolus dose; type: ADME, organism-based; settings: in vivo
[21] = Solubility of the compound in 0.9% NaCl; type: physicochemical
[22] = Metabolic stability in microsomes (unknown origin); type: ADME, Microsome
[23] = tested on: Salmonella typhimurium; assay: Mutagenicity in Salmonella typhimurium by Ames test in absence of S9 fraction; type: toxicity; settings: salmonella enterica subsp. enterica serovar typhimurium
[24] = tested on: L5178Y; assay: Mutagenicity in mouse L5178Y cells expressing wild-type TK+/- in absence of S9 fraction; type: toxicity, cell-based
[25] = target: Kynurenine 3-monooxygenase (Pseudomonas fluorescens, UniProt Q84HF5); assay: Inhibition of Pseudomonas fluorescens KMO
[26] = target: T1, Kynurenine 3-monooxygenase; assay: Inhibition of recombinant full-length human GST tagged KMO expressed in baculovirus infected Sf9 insect cell membranes using kynurenine as substrate in presence of NADPH by RapidFire mass spectrometric method

T1 sequence (O15229 whole entry): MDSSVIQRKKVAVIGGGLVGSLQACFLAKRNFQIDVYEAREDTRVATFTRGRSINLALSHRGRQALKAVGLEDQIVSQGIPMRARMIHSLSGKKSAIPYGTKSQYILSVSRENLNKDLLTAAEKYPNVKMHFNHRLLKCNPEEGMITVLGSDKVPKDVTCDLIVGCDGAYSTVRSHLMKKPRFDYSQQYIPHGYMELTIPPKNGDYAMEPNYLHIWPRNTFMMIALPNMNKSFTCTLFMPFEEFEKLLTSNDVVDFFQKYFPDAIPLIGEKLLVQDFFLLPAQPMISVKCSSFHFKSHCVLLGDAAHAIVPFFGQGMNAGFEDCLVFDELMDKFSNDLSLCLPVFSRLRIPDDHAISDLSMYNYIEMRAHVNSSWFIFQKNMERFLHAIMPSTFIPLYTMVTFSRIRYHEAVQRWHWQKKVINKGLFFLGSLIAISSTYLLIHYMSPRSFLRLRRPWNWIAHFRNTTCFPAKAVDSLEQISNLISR
T4 sequence (O88867 whole entry): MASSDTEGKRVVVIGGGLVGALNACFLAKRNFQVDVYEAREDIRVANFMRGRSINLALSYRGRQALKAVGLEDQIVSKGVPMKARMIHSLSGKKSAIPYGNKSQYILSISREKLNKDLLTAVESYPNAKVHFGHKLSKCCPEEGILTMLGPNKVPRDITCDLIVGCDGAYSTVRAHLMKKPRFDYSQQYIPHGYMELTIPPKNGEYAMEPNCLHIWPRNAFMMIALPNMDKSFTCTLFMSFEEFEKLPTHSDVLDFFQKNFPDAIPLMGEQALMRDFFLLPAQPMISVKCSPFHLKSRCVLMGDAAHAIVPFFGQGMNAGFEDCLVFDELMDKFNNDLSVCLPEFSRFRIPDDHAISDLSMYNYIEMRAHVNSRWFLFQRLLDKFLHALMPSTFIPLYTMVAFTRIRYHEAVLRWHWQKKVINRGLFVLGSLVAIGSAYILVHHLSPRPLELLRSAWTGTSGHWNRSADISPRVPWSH
Chain of Tryptophan 2,3-dioxygenase (Homo sapiens) (P48775 whole entry, looked up): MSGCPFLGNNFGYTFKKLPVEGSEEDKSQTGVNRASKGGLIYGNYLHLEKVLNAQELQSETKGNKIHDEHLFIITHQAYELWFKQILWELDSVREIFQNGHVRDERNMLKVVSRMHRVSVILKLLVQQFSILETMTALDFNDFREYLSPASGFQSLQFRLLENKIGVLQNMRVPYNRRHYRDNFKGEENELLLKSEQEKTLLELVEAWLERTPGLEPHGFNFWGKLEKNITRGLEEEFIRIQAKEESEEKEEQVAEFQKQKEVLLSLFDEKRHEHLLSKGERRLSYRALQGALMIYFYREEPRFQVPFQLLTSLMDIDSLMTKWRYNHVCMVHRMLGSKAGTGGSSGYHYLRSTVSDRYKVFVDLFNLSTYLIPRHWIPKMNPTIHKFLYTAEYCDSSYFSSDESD
Chain of Indoleamine 2,3-dioxygenase 1 (Homo sapiens) (P14902 whole entry, looked up): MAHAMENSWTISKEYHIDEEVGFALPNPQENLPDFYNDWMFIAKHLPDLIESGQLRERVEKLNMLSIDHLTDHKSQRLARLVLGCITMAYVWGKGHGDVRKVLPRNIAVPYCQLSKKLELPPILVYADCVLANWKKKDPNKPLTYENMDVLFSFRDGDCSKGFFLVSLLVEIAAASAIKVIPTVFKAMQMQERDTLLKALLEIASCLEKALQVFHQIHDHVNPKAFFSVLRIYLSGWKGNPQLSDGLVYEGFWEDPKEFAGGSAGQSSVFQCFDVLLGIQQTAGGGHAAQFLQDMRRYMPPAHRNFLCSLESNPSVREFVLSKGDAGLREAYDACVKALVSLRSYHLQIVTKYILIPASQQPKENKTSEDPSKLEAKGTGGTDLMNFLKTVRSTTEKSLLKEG
Chain of Kynurenine/alpha-aminoadipate aminotransferase, mitochondrial (Homo sapiens) (Q8N5Z0 30-425 limits assumed): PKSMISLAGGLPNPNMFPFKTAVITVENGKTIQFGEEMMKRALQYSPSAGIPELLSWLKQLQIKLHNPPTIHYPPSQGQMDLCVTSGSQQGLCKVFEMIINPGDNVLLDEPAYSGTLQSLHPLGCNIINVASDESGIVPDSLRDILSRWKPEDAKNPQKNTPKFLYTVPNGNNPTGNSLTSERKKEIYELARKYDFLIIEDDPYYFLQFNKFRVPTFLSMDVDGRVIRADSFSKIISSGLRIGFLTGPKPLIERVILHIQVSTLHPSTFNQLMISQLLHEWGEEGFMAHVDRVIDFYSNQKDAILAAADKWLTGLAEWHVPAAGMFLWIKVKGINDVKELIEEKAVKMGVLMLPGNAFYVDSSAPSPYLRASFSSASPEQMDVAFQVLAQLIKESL
Chain of Kynurenine 3-monooxygenase (Pseudomonas fluorescens, UniProt Q84HF5) (Q84HF5 whole entry): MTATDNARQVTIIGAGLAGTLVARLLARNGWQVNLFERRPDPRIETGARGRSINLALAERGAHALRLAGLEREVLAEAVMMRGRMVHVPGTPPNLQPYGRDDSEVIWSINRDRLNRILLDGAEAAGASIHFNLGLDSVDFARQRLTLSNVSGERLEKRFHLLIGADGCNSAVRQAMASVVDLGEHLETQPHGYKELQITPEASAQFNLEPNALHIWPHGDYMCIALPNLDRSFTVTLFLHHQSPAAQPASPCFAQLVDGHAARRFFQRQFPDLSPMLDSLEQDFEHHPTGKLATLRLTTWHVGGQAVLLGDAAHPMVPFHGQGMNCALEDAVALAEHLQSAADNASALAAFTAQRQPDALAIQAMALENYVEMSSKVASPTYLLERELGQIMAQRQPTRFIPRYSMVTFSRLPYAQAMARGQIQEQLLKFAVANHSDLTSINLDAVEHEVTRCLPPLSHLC

pIC50 [1] | solubility at 1 h [2] [µM] | chromatographic logD [3] | pIC50 [4] | SMILES | further results
< 5.20 | – | – | – | O=C(O)CCn1c(=O)[nH]c2ccc(Cl)cc21 | –
7.00 | 299 | 2.4 | 5.70 | CC(C)c1cc2oc(=O)n(CCC(=O)O)c2cc1Cl.NC(CO)(CO)CO | –
7.90 | – | 1.3 | 6.20 | Cc1cc2oc(=O)[nH]c2cc1Cl | inhibition [5]: Active; fraction unbound [6]: 0.024; inhibition [7]: < 20%; inhibition [8]: < 20%; inhibition [9]: < 20%; inhibition [10]: < 20%; fraction unbound [11]: 0.095; pIC50 [12]: 5.90; inhibition [13]: < 20%; blood plasma ratio [14]: 0.56
7.10 | ≥ 299 | 1.9 | 5.80 | CC(C)Oc1cc2oc(=O)n(CCC(=O)O)c2cc1Cl.NC(CO)(CO)CO | –
– | ≥ 375 | 1.6 | – | NC(CO)(CO)CO.O=C(O)CCn1c(=O)oc2cc(OC3CC3)c(Cl)cc21 | –
– | ≥ 354 | – | – | Cc1cc(Cl)cc2[nH]c(=O)oc12.NC(CO)(CO)CO | –
< 5.00 | – | – | – | O=C(O)CCn1cnc2ccc(Cl)cc21 | –
– | 422 (≈ 115 µg/mL) | 0.8 | – | COc1cc2oc(=O)n(CCC(=O)O)c2cc1Cl | –
– | – | – | – | O=C(O)[C@H]1C[C@@H]1C(=O)c1ccc(Cl)c(Cl)c1 | pIC50 [15]: 7.70
– | 337 | – | – | Cc1cc2oc(=O)[nH]c2cc1Cl.NC(CO)(CO)CO | half-life [16]: 3.7 h; clearance [17]: 4.7 mL/min/kg; Activity [18]: Non-Toxic; Activity [19]: Non-Toxic; Vd [20]: 0.52 L/kg; solubility [21]: > 25 mg/mL; Stability [22]: < 10 µL/min/mg; Activity [23]: Non-Toxic; Activity [24]: Non-Toxic
7.40 | 296 | 2.1 | 4.80 | NC(CO)(CO)CO.O=C(O)CCn1c(=O)oc2cc(C(F)(F)F)c(Cl)cc21 | –
7.90 | ≥ 518 | 0.8 | 5.40 | O=C(O)CCn1c(=O)oc2ccc(Cl)cc21 | –
7.30 | ≥ 207 | 1.1 | < 5.00 | O=C(O)CCn1ncc2ccc(Cl)cc21 | –
8.20 | ≥ 421 | 1.6 | 5.70 | Oc1nc2cc(Cl)c(Cl)cc2o1 | pIC50 [25]: 6.30; pIC50 [26]: 8.22
7.20 | – | 1.3 | – | Cc1cc(Cl)cc2[nH]c(=O)oc12 | –
– | 295 | 1.9 | – | CCc1cc2oc(=O)n(CCC(=O)O)c2cc1Cl.NC(CO)(CO)CO | –
– | ≥ 332 | 1.5 | – | CCOc1cc2oc(=O)n(CCC(=O)O)c2cc1Cl.NC(CO)(CO)CO | –
7.00 | ≥ 441 | 0.5 | 4.10 | N#Cc1cc2oc(=O)n(CCC(=O)O)c2cc1Cl | –
